# Results from patent publication US12583870B2, “Azaheteroaryl compound and application thereof” (SHANGHAI BLUERAY BIOPHARMA CO., LTD., priority 2019, dated 2026).
# What was measured:
# KARPAS-422 cells = experiment: Cell proliferation analysis, KARPAS-422, 13 days, CellTiter-Glo; format: cell-based; settings: Homo sapiens, 312 h
# Protocol: Human B-cell non-Hodgkin lymphoma cells, KARPAS-422 S, were cultured in a culture flask using standard cell culture conditions. The medium contained 15% fetal bovine serum (FBS, Invitrogen, product number 10099-141) and 1% penicillin/streptomycin solution (P/S) RPMI-1640 (Invitrogen, product number 11875), and the culture flask was placed and cultured in a sterile incubator at the temperature of 37° C. and […] with a relative humidity of […] To detect the effect of PRC2 inhibitors on cell proliferation, cells in exponential growth phase were taken and seeded into a 96-well plate (Corning, product number 3904) at a density of 1×10^4 cells/well, and 100 μL of the medium was added into each well. Subsequently, the compounds at different concentrations disclosed in the present disclosure were added into the wells where cells had already been seeded (9 concentration gradients were provided for each compound, with the highest detection concentration at 10 μM, 3-fold gradient dilution) and two replicates in parallel were provided for each treatment concentration. DMSO was at a final concentration of 0.5%. Afterwards, viable cell numbers were determined using Vi-CELL (Beckman Coulter) every 3-4 days. Cells counted were seeded into a new 96-well plate at the same density (1×10^4 cells/well) each time. The wells were supplemented with a fresh medium to 100 μL and at the same time, compounds at different concentrations were added. The cells were cultured to day 13. 100 μL of CellTiter-Glo (CellTiter-GloCellTiter-GloCellTiter-GloCTG) (Promega, product number G7573) was added into each well. The plate was placed in the dark at room temperature for 10-20 minutes and the luminescence signal was read using SpectraMax i3× (Molecular Devices).
# [1] = test system: trimethylation level of histone H3K27 in G401 cells; experiment: ELISA (H3K27 trimethylation) analysis in G401 cells; format: cell-based; settings: Homo sapiens, G-401, 72 hours, H3K27me3 standardized to H3
# Protocol: 3-fold series dilution with DMSO was carried out on the representative compounds of the present disclosure; and 10 concentration gradients were detected for each compound, with the highest detection concentration of 10 μM. The compounds were diluted 200-fold into the G401 cells cultured in a 96-well plate (DMSO at a final concentration of 0.5%). After the cells, administered with the compound, were cultured for 72 hours, the trimethylation level of the histone H3K27 was detected using the ELISA method.
# Extraction of the histone: in a 96-well plate, the compound-treated cells were washed three times with 1×PBS (10×PBS buffer (80 g NaCl (Sigma, product number S3014), 2 g KCl (Sigma, product number 60128), 14.4 g Na2HPO4 (Sigma, product number S5136), and 2.4 g KH2PO4 (Sigma, product number P9791) in 1 L of water, adjusting the pH to 7.4)). 100 μL of 0.4 N HCl was added into each well. The plate was placed at 4° C. and gently agitated for 2 hours to lyse the cells. The cell lysate was then neutralized with 80 μL of neutralization buffer (0.5 M disodium hydrogen phosphate, pH 12.5, 2.5 mM DTT; 1% cocktail (Sigma, product number P8340)) (the cell lysate and the neutralization buffer were thoroughly mixed to uniformity).
# ELISA detection method: the cell lysate was transferred in parallel to two 384-well detection plates (PerkinElmer, OptiPlate-384HB, product number 6007290), wherein one of the plates was used to detect the H3K27 trimethylation level and the other plate was used to determine the level of H3. PBS was used to adjust the final volume to 50 μL/well. The plates were coated at 4° C. overnight. On the following day, the solution inside the wells was discarded and the plates were washed 5 times with TBST buffer (1×TBS (10×TBS: 24.2 g Tris (Sigma, product number T6066), 80 g NaCl (Sigma, product number S3014) in 1 L of water, adjusting the pH with HCl to 7.6), 0.1% Tween-20) and dried on an absorbent paper by inversion. 70 μL of blocking buffer (TBST, 5% BSA) was added into the coated reaction wells and the plates were incubated at room temperature for 1 hour. The blocking buffer was discarded and primary antibodies were added (30 μL/well). The desired primary antibodies were all diluted with a blocking buffer and the dilution factor was as follows: anti-H3K27me3 antibody (Cell Signaling Technology, product number 9733), 1:2000 dilution; anti-H3 antibody (Cell Signaling Technology, product number 4499), 1:10000 dilution. After the primary antibodies were added, the plates were placed at room temperature and incubated for 1 hour. After the plates were washed with TBST 5 times, the plates were dried by inversion. A secondary antibody (30 μL/well) was added to each of the reaction wells and the plates were incubated at room temperature for 1 hour. The secondary antibody (anti-rabbit antibody (Jackson ImmunoResearch, product number 111-035-003)) was diluted 2000-fold with a blocking buffer before use. After 1 hour, the plates were washed with TBST and dried by inversion. 30 μL of ECL substrate (Pierce, product number 34080) was added into each well and centrifuged at 2000 rpm for 30 seconds. The signal of each sample was detected using SpectraMax (Molecular Devices). Data processing: H3K27 methylation readings were first standardlized using H3 signals and 0.5% DMSO-treated samples was used as the control to calculate the inhibition percentage of the compounds. Data were fit to obtain Dose-Response curves using the GraphPad prism 5 program and the IC50 values of the test compounds were obtained.
IC50 (KARPAS-422 cells) [µM],IC50 [1] [µM],SMILES
0.014,0.0023,"Fc1ccc2c(c1CNc1ncc(-c3cccc4nsnc34)c3nncn13)CCO2 [8-(benzo[c][1,2,5]thiadiazol-4-yl)-N-((5-fluoro-2,3-dihydrobenzofuran-4-yl)methyl)-[1,2,4]triazolo[4,3-c]pyrimidin-5-amine]"
0.0046,0.0134,"NC(=O)c1cnc2c(-c3cnc(NCc4c(F)ccc5c4CCO5)n4cnnc34)cc(F)cn12 [6-fluoro-8-(5-(((5-fluoro-2,3-dihydrobenzofuran-4-yl)methyl)amino)-[1,2,4]triazolo[4,3-c]pyrimidin-8-yl)imidazo[1,2-a]pyridine-3-carboxamide]"
0.0021,0.0022,"CC(C)(O)CNCc1ccc(-c2cnc(NCc3c(F)ccc4c3CCO4)n3cnnc23)c2ncnn12 [1-(((8-(5-(((5-fluoro-2,3-dihydrobenzofuran-4-yl)methyl)amino)-[1,2,4]triazolo[4,3-c]pyrimidin-8-yl)-[1,2,4]triazolo[1,5-a]pyridin-5-yl)methyl)amino)-2-methylpropan-2-ol]"
0.0024,0.0047,"CN(C)C(=O)c1cnc2c(-c3cnc(NCc4c(F)ccc5c4CCO5)n4cnnc34)cc(F)cn12 [6-fluoro-8-(5-(((5-fluoro-2,3-dihydrobenzofuran-4-yl)methyl)amino)-[1,2,4]triazolo[4,3-c]pyrimidin-8-yl)-N,N-dimethylimidazo[1,2-a]pyridine-3-carboxamide]"
0.0013,0.0007,"CN(C)C(=O)c1ccc(-c2cnc(NCc3c(F)ccc4c3CCO4)n3cnnc23)c2nccn12 [8-(5-(((5-fluoro-2,3-dihydrobenzofuran-4-yl)methyl)amino)-[1,2,4]triazolo[4,3-c]pyrimidin-8-yl)-N,N-dimethylimidazo[1,2-a]pyridine-5-carboxamide]"
0.0002,0.0004,"CC(C)(O)c1ccc(-c2cnc(NCc3c(F)ccc4c3CCO4)n3cnnc23)c2ncnn12 [2-(8-(5-(((5-fluoro-2,3-dihydrobenzofuran-4-yl)methyl)amino)-[1,2,4]triazolo[4,3-c]pyrimidin-8-yl)-[1,2,4]triazolo[1,5-a]pyridin-5-yl)propan-2-ol]"
0.0013,0.0013,"N#Cc1cnc2c(-c3cnc(NCc4c(F)ccc5c4CCO5)n4cnnc34)ccc(N3CCOCC3)n12 [8-(5-(((5-fluoro-2,3-dihydrobenzofuran-4-yl)methyl)amino)-[1,2,4]triazolo[4,3-c]pyrimidin-8-yl)-5-morpholinoimidazo[1,2-a]pyridine-3-carbonitrile]"
0.018,0.033,"Fc1ccc2c(c1CNc1ncc(-c3ccc(Cl)n4ncnc34)c3nncn13)CCO2 [8-(5-chloro-[1,2,4]triazolo[1,5-a]pyridin-8-yl)-N-((5-fluoro-2,3-dihydrobenzofuran-4-yl)methyl)-[1,2,4]triazolo[4,3-c]pyrimidin-5-amine]"
0.0023,0.0016,"Fc1ccc2c(c1CNc1ncc(-c3cccc4cn[nH]c34)c3nncn13)CCO2 [N-((5-fluoro-2,3-dihydrobenzofuran-4-yl)methyl)-8-(1H-indazol-7-yl)-[1,2,4]triazolo[4,3-c]pyrimidin-5-amine]"
0.0011,0.0024,"Cc1ccc(-c2cnc(NCc3c(F)ccc4c3CCO4)n3cnnc23)c2ncc(C(=O)N3CCOCC3)n12 [(8-(5-(((5-fluoro-2,3-dihydrobenzofuran-4-yl)methyl)amino)-[1,2,4]triazolo[4,3-c]pyrimidin-8-yl)-5-methylimidazo[1,2-a]pyridin-3-yl)(morpholino)methanone]"
0.0244,0.0018,"CN(C)c1nc2c(-c3cnc(NCc4c(F)ccc5c4CCO5)n4cnnc34)cc(F)cn2n1 [8-(2-(dimethylamino)-6-fluoro-[1,2,4]triazolo[1,5-a]pyridin-8-yl)-N-((5-fluoro-2,3-dihydrobenzofuran-4-yl)methyl)-[1,2,4]triazolo[4,3-c]pyrimidin-5-amine]"
0.0014,0.0009,"Fc1ccc2c(c1CNc1ncc(-c3cccn4ncnc34)c3nncn13)CCO2 [8-([1,2,4]triazolo[1,5-a]pyridin-8-yl)-N-((5-fluoro-2,3-dihydrobenzofuran-4-yl)methyl)-[1,2,4]triazolo[4,3-c]pyrimidin-5-amine]"
0.0014,0.007,"Cc1ccc(-c2cnc(NCc3c(F)ccc4c3CCO4)n3cnnc23)c2ncc(CC#N)n12 [2-(8-(5-(((5-fluoro-2,3-dihydrobenzofuran-4-yl)methyl)amino)-[1,2,4]triazolo[4,3-c]pyrimidin-8-yl)-5-methylimidazo[1,2-a]pyridin-3-yl)acetonitrile]"
0.0007,0.0011,"Fc1ccc2c(c1CNc1ncc(-c3ccc(N4CCOCC4)n4ncnc34)c3nncn13)CCO2 [N-((5-fluoro-2,3-dihydrobenzofuran-4-yl)methyl)-8-(5-morpholino-[1,2,4]triazolo[1,5-a]pyridin-8-yl)-[1,2,4]triazolo[4,3-c]pyrimidin-5-amine]"
0.0012,0.0064,"CC(C)(O)COCc1ccc(-c2cnc(NCc3c(F)ccc4c3CCO4)n3cnnc23)c2ncnn12 [1-((8-(5-(((5-fluoro-2,3-dihydrobenzofuran-4-yl)methyl)amino)-[1,2,4]triazolo[4,3-c]pyrimidin-8-yl)-[1,2,4]triazolo[1,5-a]pyridin-5-yl)methoxy)-2-methylpropan-2-ol]"
0.0005,0.0007,"CN(C)Cc1ccc(-c2cnc(NCc3c(F)ccc4c3CCO4)n3cnnc23)c2ncc(C#N)n12 [5-((dimethylamino)methyl)-8-(5-(((5-fluoro-2,3-dihydrobenzofuran-4-yl)methyl)amino)-[1,2,4]triazolo[4,3-c]pyrimidin-8-yl)imidazo[1,2-a]pyridine-3-carbonitrile]"
0.0013,0.0013,"Cc1nc2c(-c3cnc(NCc4c(F)ccc5c4CCO5)n4cnnc34)ccc(C)n2n1 [8-(2,5-dimethyl-[1,2,4]triazolo[1,5-a]pyridin-8-yl)-N-((5-fluoro-2,3-dihydrobenzofuran-4-yl)methyl)-[1,2,4]triazolo[4,3-c]pyrimidin-5-amine]"
0.0083,0.0089,"N#Cc1cnc2c(-c3cnc(NCc4c(F)ccc5c4CCO5)n4cnnc34)cc(F)cn12 [6-fluoro-8-(5-(((5-fluoro-2,3-dihydrobenzofuran-4-yl)methyl)amino)-[1,2,4]triazolo[4,3-c]pyrimidin-8-yl)imidazo[1,2-a]pyridine-3-carbonitrile]"
0.0062,0.0039,"COc1ccc(-c2cnc(NCc3c(F)ccc4c3CCO4)n3cnnc23)c2ncc(C#N)n12 [8-(5-(((5-fluoro-2,3-dihydrobenzofuran-4-yl)methyl)amino)-[1,2,4]triazolo[4,3-c]pyrimidin-8-yl)-5-methoxyimidazo[1,2-a]pyridine-3-carbonitrile]"
